Assay results published in patent US11541059B2, “Heterocyclic compounds and uses thereof” (Infinity Pharmaceuticals, Inc., priority 2014, dated 2023).

What was measured:
Lewis Lung Carcinoma = Lewis Lung Carcinoma model / LLC tumor brei model; type: in vivo, mouse
[1] = test system: CXCL12-induced pAKT in T-cells; assay: CXCL12-induced pAKT assay in T-cells; type: cell-based, human; conditions: FIG. 9
Source text: There was a tight correlation between the EC50s observed in the CXCL12-induced pAKT assay and the T-cell migration assay.

[2] = test system: LPS induced neutrophil influx in BALF; assay: LPS-induced neutrophilia, oral administration; type: in vivo; conditions: rat, p.o., 4 hours post-LPS challenge
Source text: This study also includes assessment of the exposure to the compounds in plasma and lung tissues.

[3] = test system: RANKL driven differentiation of osteoclasts from bone marrow macrophages; assay: Osteoclast differentiation assay (TRAP); type: cell-based, mouse; conditions: TRAP positive cells, FIG. 17
Procedure: Long bones from young C57B6 mice were harvested and bone marrow was extruded by gentle lavage of the bone marrow cavities with a 28 gage needle. The cells were screened, and red blood cells were removed using red blood cell lysis buffer (Sigma). Bone marrow cells were differentiated to macrophages using 20 ng/ml mouse MCSF (RnD systems) for 3 days (RPMI and 20% FCS). The cell were washed with PBS, and lifted with Accutase for 10 minutes.
The bone marrow macrophage cells were plated at 150,000 cells per well in a 96 well plate in a MEM 10% FCS. […] Then 25 ng/ml mouse MCSF with or without mouse RANKL (100 ng/ml, RnD systems) was added for 6 days. Media changes (including drugs) were done at day 3 and day 5. The cells were then fixed and stained with the tartrate resistant acid phosphatase (TRAP) assay kit from Sigma according to the manufactures instructions. TRAP positive cells (osteoclasts and cells undergoing an osteoclastic differentiation) in a transect of the triplicate wells (at 20× […]) were manually counted by going through the widest part of each well.

CT26 tumors = assay: CT26 colon cancer allograft model; type: in vivo, mouse; conditions: FIG. 28
MC38 tumors = assay: MC38 colon cancer model; type: in vivo, mouse
Procedure: In this model, a syngeneic colon cancer cell line is run subcutaneously. The experimental setup was as follows.
Female CR C57BL/6 mice were set up with 1×10^6 MC38 tumor cells in 0% Matrigel sc in flank. The cell injection volume was 0.05 ml per mouse. When tumors reached an average size of […], a pair match was made and treatment began. The tumor was measured by caliper biweekly.
The dosing volume was 5 mL/kg.
For all animals, blood was collected by terminal cardiac puncture under isoflurane anesthesia. The blood was processed for plasma. In addition, tumor samples were collected.
At study end, tumors were isolated, fixed in 10% neutral buffered formalin and embedded in paraffin for histologic analysis. Tumor sections from both vehicle and Compound BB monotherapy were cut for immunohistochemical analysis. T-cells within the tumor sections were identified utilizing a CD3-specific antibody via automated immunohistochemistry equipment (Ventana). Once stained, slides were digitalized via Aperio slide scanning equipment. Next, stained tumor sections were quantified via Definians software to assess the percentage of CD3 positive cells within each tumor. […] A trendline was added to the vehicle and Compound BB monotherapy graphs.

4T1 tumors = assay: 4T1 breast cancer model; type: in vivo, mouse
Procedure: Plasma is collected for pharmokinetic (PK) analysis.
Briefly, in this study, treatment was initiated when tumors reached approximately 100 mm^3. […] 1. […] Vehicle+anti-PD-L1 (200 ug); 4.
Luciferin measurements were taken twice a week.

[4] = test system: monocytic iMCs in CT26 subcutaneous tumors; assay: Flow cytometry of tumor-associated myeloid cells, CT26; type: in vivo, mouse; conditions: FIG. 38B
Procedure: Flow cytometry was performed to obtain a more extensive cellular subset analysis. In particular, the study examined T cell vs. Myeloid cells, Myeloid cell subsets, Regulatory vs. effector T cells, and Tumor markers vs. WBC (e.g., PD-L1 expression on tumor).
Different populations of tumor-associated myeloid cells can be identified by flow cytometry, e.g., monocytic immature myeloid cells (iMC),Granulocytic iMCs/Neutrophils, Tumor Associated Macrophages (TAMs), and Granulocytic MDSCs. The different populations, and panels for detecting MDSCs, are described in Cancer Discovery 2011; 1:54-67. Tumors may vary in their myeloid cell composition.

[5] = test system: immune gene expression in KPC tumors; assay: RNA expression profiling (TLDA) of KPC pancreatic tumors; type: in vivo, mouse; conditions: 3 mg/kg, with or without PDL-1 antibody
Procedure: RNA expression profiling was performed for immuno-phenotyping with a Tagman low density array (TLDA).
For mouse tumors, snap frozen samples were powdered with a Genogrinder at liquid nitrogen temperatures and RNA was isolated with Trizol. Next, the sample was cleaned-up using Qiashredder, and then using a RNeasy kit.
CT values were used for analysis. For each sample Si and each gene, the following values were calculated: dCT(Si,gene)=CT(Si,gene)−CT(Si,ACTB) ddCT(Si,gene)=dCT(Si,gene)−median(dCT(vehicle treated samples,gene)) RQ(Si,gene)=2^(−ddCT(Si,gene))
This produced a matrix of RQ values: 48 genes (rows)×39 samples (cols).
The analysis used R package Non-negative Matrix Factorization (NMF) with rank=3 and the “lee” algorithm.

[6] = Stability in simulated gastric fluid; type: physicochemical
Source text: The phyiscochemical properties of Compound BB are drug-like, and suitable for use of the compound as a drug.

Cyps = assay: Time dependent Cyp inhibition; type: in vitro ADME
[7] = test system: CD206 population in LLC tumors; assay: CD206 levels of macrophages in LLC tumors (FACS); type: in vivo, mouse; conditions: alone and in combination with cyclophosphamide
Procedure: Tumors were harvested on the last day or if the vehicles reached approx. 3000 mm^3. Tumors were cut in half. One half was cut in half again with ½ fixed in 10% NBF, and the other was frozen in OCT for frozen sections. The remaining half was processed to single cell suspension and evaluated by FACS using two panels. Antibodies used for staining for FACS were as follows. Staining with CD4 and CD8a: CD45-AF700 (BDB560510) at 1.25 ug/ml; […] Staining with CD11b and GR-1: CD45-AF700 (BDB560510) at 1.25 ug/ml; […] CD45-AF700 (BDB560510) at 1.25 ug/ml; […] Staining with MDSC panel: CD45-AF700 (BDB560510) at 1.25 ug/ml; […] Ly6C APC at 2.5 ug/ml; and Ly6G FITC at 2.5 ug/ml.

Compound: C[C@H](NC(=O)c1c(N)nn2cccnc12)c1cc2cccc(C#Cc3cnn(C)c3)c2c(=O)n1-c1ccccc1 [Compound BB]
- CD206+ M2 polarized suppressive macrophages (Lewis Lung Carcinoma): reduces
- TAMs (Lewis Lung Carcinoma): decreased
- Inhibition of CXCL12-induced pAKT in T-cells [1]: inhibited CXCL12-induced pAKT in T-cells more strongly than a PI3K-δ inhibitor
- Neutrophil in bronchoalveolar lavage fluid (BALF) [2]: reduced neutrophil
- RANKL driven differentiation of osteoclasts from bone marrow macrophages [3]: prevents RANKL driven differentiation of osteoclasts
- MDSC expansion after cyclophosphamide treatment (CT26 tumors): expansion is decreased
- Intratumoral CD3+ T cells (MC38 tumors; MC38 tumors vs vehicle, FIG. 30): significantly more intratumoral CD3+ T cells
- Tumor growth, MC38 colon cancer model (MC38 tumors; monotherapy, FIG. 29A): significantly inhibited tumor growth
- Tumor growth, orthotopic 4T1 breast cancer model (4T1 tumors; 7.5 mg/kg PO QD 3 weeks, FIG. 33A): reduced tumor growth
- Tumor growth, subcutaneous 4T1 breast cancer model (4T1 tumors; 15 mg/kg PO QD 2 weeks, FIG. 36): demonstrated single agent activity
- Anti-tumor effect maintained after discontinuation of treatment (4T1 tumors; subcutaneous 4T1, FIG. 34): at least 6 days
- Monocytic iMCs [4]: monocytic iMCs were decreased
- M2 macrophage markers VEGF and ARG-1 (RNA) [5]: trended towards reduction
- Stability in 38° simulated gastric fluid [6]: > 4 h
- Time dep Cyp Inhibition @ 10 uM (Cyps): Neg
- CD206 population in LLC tumors [7]: decrease in the CD206 population
